# Source: patent publication US20250161476A1 (REGENERON PHARMACEUTICALS, INC., priority 2020, published 2025)
# *1 amine or outer side, *2 acyl side, *3 side chain or, on linkers, in order; H or OH if unused. Where a SMILES comes first, the peptide text is derived from it. Side-chain parts run from the residue outwards. [ ]: non-standard residue; d: D form. The star is where a group is joined. PEG24 = NCCOCCOCCOCCOCCOCCOCCOCCOCCOCCOCCOCCOCCOCCOCCOCCOCCOCCOCCOCCOCCOCCOCCOCCOCCC(=O)O; Bip(2'-Et-4'-O(CH2)4NH2) = CCc1cc(OCCCCN[*:3])ccc1-c1ccc(C[C@H](N[*:1])C(=O)[*:2])cc1; Bip(2'-Et,4'-O(CH2)4N3) = CCc1cc(OCCCCN=[N+]=[N-])ccc1-c1ccc(C[C@H](N)C(=O)O)cc1; Bip(2'-Et,4'-O(CH2)4NH2) = CCc1cc(OCCCCN)ccc1-c1ccc(C[C@H](N)C(=O)O)cc1; X6 = O=C(NCCOCCOCCOCCOC(=O)*)OC[C@@H]1[C@@H]2CCc3[nH]nnc3CC[C@@H]21; Malonyl(2,2-Me2,histaminyl) = CC(C)(C(=O)NCCc1cnc[nH]1)C(=O)*; Nva(5-(3,5-Me2Ph)) = Cc1cc(C)cc(CCC[C@H](N)C(=O)O)c1; Ala(1H-tetrazol-5-yl) = N[C@@H](Cc1nnn[nH]1)C(=O)O; αMePhe(2-F) = C[C@](N)(Cc1ccccc1F)C(=O)O; DBCO = C1#Cc2ccccc2N(*)Cc2ccccc21; Suc = O=C(CCC(=O)[*:2])[*:1]; Aib = CC(C)(N)C(=O)O
# How the values were obtained:
# HEK293/CRE-Luc cells = test: cAMP responsive luciferase reporter assay, HEK293/CRE-Luc cells (no hGLP1R expression); format: cell-based, human
# From the text: (§1) To test the activity of GLP1R agonist payloads, GLP1R agonist linker-payloads (LPs), and anti-GLP1R antibody tethered drug conjugates (ATDCs) of the disclosure, a cell-based cAMP responsive luciferase reporter assay was developed. To generate the assay cell line, the firefly luciferase gene was placed under the control of a cAMP response element (CRE) located upstream of a minimal promoter and transfected into HEK293 cells and referred to herein as HEK293/CRE-Luc cells.
# (§2) Three-fold serial dilutions of free payloads or LPs were prepared in 100% DMSO, transferred to fresh assay media, and added to the cells at a final constant DMSO concentration of 0.2%. The last well in the plate served as a blank control containing only the assay media and 0.2% DMSO (untreated well) and was plotted as a continuation of the 3-fold serial dilution. Four to six hours later, luciferase activity was determined after the addition of One-Glo™ reagent (Promega, Cat #E6130) to each well. Relative light units (RLUs) were measured on an Envision luminometer (PerkinElmer) and EC50 values were determined using a four-parameter logistic equation over a 12-point dose response curve (GraphPad Prism). The signal to noise (S/N) was determined by taking the ratio of the highest RLU on the dose response curve to the RLU in the untreated wells.
# human GLP1R = human GLP1R (Homo sapiens (Human), UniProt P43220); test: cAMP responsive luciferase reporter assay, HEK293/CRE-Luc/hGLP1R cells; format: cell-based
# Sequence of human GLP1R (P43220 24-463): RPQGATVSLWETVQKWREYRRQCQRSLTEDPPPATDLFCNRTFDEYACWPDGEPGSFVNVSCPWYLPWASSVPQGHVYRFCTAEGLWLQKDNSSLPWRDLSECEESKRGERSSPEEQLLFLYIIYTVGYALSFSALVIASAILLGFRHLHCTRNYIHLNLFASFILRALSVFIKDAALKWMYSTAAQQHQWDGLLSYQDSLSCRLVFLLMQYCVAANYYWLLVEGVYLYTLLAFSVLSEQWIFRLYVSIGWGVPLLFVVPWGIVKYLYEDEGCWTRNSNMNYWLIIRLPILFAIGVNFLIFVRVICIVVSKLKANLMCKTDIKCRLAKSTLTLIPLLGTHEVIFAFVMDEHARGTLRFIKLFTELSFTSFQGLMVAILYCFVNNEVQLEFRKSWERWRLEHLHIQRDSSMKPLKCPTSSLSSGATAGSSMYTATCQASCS
# From the text: as §1, §2
# GLP1R agonist linker payloads were conjugated to anti-hGLP1R antibodies via N-terminal heavy or light chain Q tags. Several resulting anti-GLP1R antibody tethered drug conjugates (ATDCs) were tested for activity in the HEK293/CRE-Luc/hGLP1R reporter assay as described above for the free GLP1R payload and linker-payload agonists.
# [1] = Plasma stability of payloads and linker-payloads, human plasma; format: in vitro ADME; details: for half-life at 2 µM: human, pooled plasma, pH 7.4, payload properties table, species not given, read-out: Plasma stability t½ (converted)
# Description: The plasma stability of payloads and linker payloads of the disclosure were measured. For the assay, pooled frozen plasma (human, mouse or monkey) was thawed in cold water or a 37° C. water bath prior to experiment. Plasma was centrifuged at 4000 rpm for 5 min if any clots were observed, they were subsequently removed. If required, the pH was adjusted to 7.4±0.1. For the preparation of compounds and positive controls, a 1 mM intermediate solution was prepared by diluting 10 μL of their stock solution with 90 μL DMSO; a 1 mM intermediate solution of the positive control (Propantheline) was prepared by diluting 10 μL of its stock solution with 90 μL ultrapure water. […] 98 μL of plasma was spiked with 2 μL of dosing solution (100 μM) to achieve the final concentration of 2 μM in duplicate. Samples were then incubated at 37° C. in a water bath. […] At each time point, 400 μL of stop solution (200 ng/mL tolbutamide plus 200 ng/mL labetalol in 50% ACN/MeOH) was added to precipitate protein and mixed thoroughly. Sample plates were then centrifuged at 4,000 rpm for 10 min. An aliquot of supernatant (50 μL) was transferred from each well and mixed with 100 μL ultra-pure water. The samples were then shaken at 800 rpm for approximately 10 min before submitting for LC-MS/MS analysis.
# [2] = relative to P8 of the same experiment
# [3] = human plasma, tested for 7 days (D)
# [4] = human plasma, tested for 3 days (C)
# [5] = human plasma, tested for 1 day (A)
compound,measurement,setting,value
"CC[C@H](C)[C@H](NC(=O)[C@H](Cc1ccccc1)NC(=O)[C@H](CCC(=O)O)NC(=O)[C@H](CCCCN)NC(=O)[C@H](C)NC(=O)[C@H](C)NC(=O)[C@H](CCC(N)=O)NC(=O)CNC(=O)[C@H](CCC(=O)O)NC(=O)[C@H](CC(C)C)NC(=O)[C@H](Cc1ccc(O)cc1)NC(=O)[C@H](CO)NC(=O)[C@H](CO)NC(=O)[C@@H](NC(=O)[C@H](CC(=O)O)NC(=O)[C@H](CO)NC(=O)[C@@H](NC(=O)[C@H](Cc1ccccc1)NC(=O)[C@@H](NC(=O)CNC(=O)[C@H](CCC(=O)O)NC(=O)[C@H](C)NC(=O)[C@@H](N)Cc1c[nH]cn1)[C@@H](C)O)[C@@H](C)O)C(C)C)C(=O)N[C@@H](C)C(=O)N[C@@H](Cc1c[nH]c2ccccc12)C(=O)N[C@@H](CC(C)C)C(=O)N[C@H](C(=O)N[C@@H](CCCCN)C(=O)NCC(=O)N[C@@H](CCCNC(=N)N)C(N)=O)C(C)C [GLP1, Glucagon-like peptide 1, reference compound]",HEK293/CRE-LUC S/N,HEK293/CRE-Luc cells,1.3
same,HEK293/CRE-Luc S/N,"HEK293/CRE-Luc cells; ATDCs, Table 12",1.4
"CCc1cc(OCCCCNC(=O)CCOCCOCCOCCOCCOCCOCCOCCOCCOCCOCCOCCOCCOCCOCCOCCOCCOCCOCCOCCOCCOCCOCCOCCOCCNC(=O)CCC(=O)N2Cc3ccccc3C#Cc3ccccc32)ccc1-c1ccc(C[C@H](NC(=O)[C@H](CC(=O)O)NC(=O)[C@H](CO)NC(=O)[C@@H](NC(=O)[C@](C)(Cc2ccccc2F)NC(=O)[C@@H](NC(=O)CNC(=O)[C@H](Cc2nn[nH]n2)NC(=O)C(C)(C)C(=O)NCCc2cnc[nH]2)[C@@H](C)O)[C@@H](C)O)C(=O)N[C@@H](CCCc2cc(C)cc(C)c2)C(N)=O)cc1 [LP4, DIBAC-suc-PEG24-P9] ({Malonyl(2,2-Me2,histaminyl)}-[Ala(1H-tetrazol-5-yl)]GT[αMePhe(2-F)]TSD[Bip(2'-Et-4'-O(CH2)4NH2)]([PEG24-Suc-DBCO])[Nva(5-(3,5-Me2Ph))]-NH2)",HEK293/CRE-LUC/hGLP1R S/N,human GLP1R; highest RLU / RLU of untreated wells,63.8
same,HEK293/CRE-LUC/hGLP1R Relative Potency (% P8 EC50),human GLP1R; [2],4.2%
same,HEK293/CRE-LUC/hGLP1R Relative Signal:Noise (% P8),human GLP1R; [2],97.1%
same,EC50,HEK293/CRE-Luc cells,> 200 nM
same,HEK293/CRE-LUC S/N,HEK293/CRE-Luc cells,1.7
"CCc1cc(OCCCCn2cc(COCCOCCOCCOCCNC(=O)OC[C@@H]3[C@@H]4CCc5[nH]nnc5CC[C@@H]43)nn2)ccc1-c1ccc(C[C@H](NC(=O)[C@H](CC(=O)O)NC(=O)[C@H](CO)NC(=O)[C@@H](NC(=O)[C@](C)(Cc2ccccc2F)NC(=O)[C@@H](NC(=O)CNC(=O)[C@H](Cc2nn[nH]n2)NC(=O)C(C)(C)C(=O)NCCc2cnc[nH]2)[C@@H](C)O)[C@@H](C)O)C(=O)N[C@@H](CCCc2cc(C)cc(C)c2)C(N)=O)cc1 [LP24, triazole-BCN-PEG4-triazole-P8]",Human plasma stability assay T½,[1]; [3],>404.7 h
"CCc1cc(OCCCCNC(=O)OCCOCCOCCOCCNC(=O)OC[C@@H]2[C@@H]3CCc4[nH]nnc4CC[C@@H]32)ccc1-c1ccc(C[C@H](NC(=O)[C@H](CC(=O)O)NC(=O)[C@H](CO)NC(=O)[C@@H](NC(=O)[C@](C)(Cc2ccccc2F)NC(=O)[C@@H](NC(=O)CNC(=O)[C@H](Cc2nn[nH]n2)NC(=O)C(C)(C)C(=O)NCCc2cnc[nH]2)[C@@H](C)O)[C@@H](C)O)C(=O)N[C@@H](CCCc2cc(C)cc(C)c2)C(N)=O)cc1 [LP25, triazole-BCN-PEG4-carbamate-P9] ({Malonyl(2,2-Me2,histaminyl)}-[Ala(1H-tetrazol-5-yl)]GT[αMePhe(2-F)]TSD[Bip(2'-Et-4'-O(CH2)4NH2)](X6)[Nva(5-(3,5-Me2Ph))]-NH2)",Human plasma stability assay T½,[1]; [3],284.8 h
"CCc1cc(OCCCCNC(=O)[C@H](CO)NC(=O)CNC(=O)CNC(=O)CNC(=O)CNC(=O)CCC(=O)N2Cc3ccccc3-c3nn[nH]c3-c3ccccc32)ccc1-c1ccc(C[C@H](NC(=O)[C@H](CC(=O)O)NC(=O)[C@H](CO)NC(=O)[C@@H](NC(=O)[C@](C)(Cc2ccccc2F)NC(=O)[C@@H](NC(=O)CNC(=O)[C@H](Cc2nn[nH]n2)NC(=O)C(C)(C)C(=O)NCCc2cnc[nH]2)[C@@H](C)O)[C@@H](C)O)C(=O)N[C@@H](CCCc2cc(C)cc(C)c2)C(N)=O)cc1 [LP26, triazole-DABAC- G4S-P9]",Human plasma stability assay T½,[1]; [3],>404.7 h
"CCc1cc(OCCCCn2cc(COCCOCCOCCOCCOCCOCCOCCOCCNC(=O)CCC(=O)N3Cc4ccccc4-c4nn[nH]c4-c4ccccc43)nn2)ccc1-c1ccc(C[C@H](NC(=O)[C@H](CC(=O)O)NC(=O)[C@H](CO)NC(=O)[C@@H](NC(=O)[C@](C)(Cc2ccccc2F)NC(=O)[C@@H](NC(=O)CNC(=O)[C@H](Cc2nn[nH]n2)NC(=O)C(C)(C)C(=O)NCCc2cnc[nH]2)[C@@H](C)O)[C@@H](C)O)C(=O)N[C@@H](CCCc2cc(C)cc(C)c2)C(N)=O)cc1 [LP28, triazole-DIBAC-suc-PEG8-triazole-P8]",half-life,"[1]; human plasma, tested for 3 days (C), read-out: Human plasma stability assay T½",> 7.23 days
"CCc1cc(OCCCCn2cc(COCCOCCOCCOCCOCCOCCOCCOCCN)nn2)ccc1-c1ccc(C[C@H](NC(=O)[C@H](CC(=O)O)NC(=O)[C@H](CO)NC(=O)[C@@H](NC(=O)[C@](C)(Cc2ccccc2F)NC(=O)[C@@H](NC(=O)CNC(=O)[C@H](Cc2nn[nH]n2)NC(=O)C(C)(C)NC(=O)[C@@H](N)Cc2ccc(O)cc2)[C@@H](C)O)[C@@H](C)O)C(=O)N[C@@H](CCCc2cc(C)cc(C)c2)C(N)=O)cc1 [LP29, NH2-PEG8-triazole-P19]",Human plasma stability assay T½,[1]; [4],>173.4 h
"CCc1cc(OCCCCn2cc(COCCOCCOCCOCCOCCOCCOCCOCCC(=O)N[C@@H](CC(C)C)C(=O)N3CCC[C@@H]3C(=O)N[C@@H](CCC(=O)O)C(=O)N[C@H](C(=O)NCC(=O)NCC(=O)O)[C@@H](C)O)nn2)ccc1-c1ccc(C[C@H](NC(=O)[C@H](CC(=O)O)NC(=O)[C@H](CO)NC(=O)[C@@H](NC(=O)[C@](C)(Cc2ccccc2F)NC(=O)[C@@H](NC(=O)CNC(=O)[C@H](Cc2nn[nH]n2)NC(=O)C(C)(C)C(=O)NCCc2cnc[nH]2)[C@@H](C)O)[C@@H](C)O)C(=O)N[C@@H](CCCc2cc(C)cc(C)c2)C(N)=O)cc1 [LP34, GGTEPL-PEG8- triazole-P8]",Human plasma stability assay T½,[1]; [4],>173.4 h
CCc1cc(OCCCCN)ccc1-c1ccc(C[C@H](NC(=O)[C@H](CC(=O)O)NC(=O)[C@H](CO)NC(=O)[C@@H](NC(=O)[C@](C)(Cc2ccccc2F)NC(=O)[C@@H](NC(=O)CNC(=O)[C@@H](N)Cc2nn[nH]n2)[C@@H](C)O)[C@@H](C)O)C(=O)N[C@@H](CCCc2cc(C)cc(C)c2)C(N)=O)cc1 [P2],Human plasma stability assay T½,"[1]; human plasma, tested for 2 hrs (B)",10.74 h
same,half-life at 2 µM,[1],642 min
"CCc1cc(OCCCCN)ccc1-c1ccc(C[C@H](NC(=O)[C@H](CC(=O)O)NC(=O)[C@H](CO)NC(=O)[C@@H](NC(=O)[C@](C)(Cc2ccccc2F)NC(=O)[C@@H](NC(=O)CNC(=O)[C@H](Cc2nn[nH]n2)NC(=O)C(C)(C)NC(=O)[C@@H](N)Cc2ccc(O)cc2)[C@@H](C)O)[C@@H](C)O)C(=O)N[C@@H](CCCc2cc(C)cc(C)c2)C(N)=O)cc1 [P19] (H-Y[Aib][Ala(1H-tetrazol-5-yl)]GT[αMePhe(2-F)]TSD[Bip(2'-Et,4'-O(CH2)4NH2)][Nva(5-(3,5-Me2Ph))]-NH2)",Human plasma stability assay T½,[1]; [5],>57.81 h
same,half-life at 2 µM,[1],> 3470 min
"CCc1cc(OCCCCN=[N+]=[N-])ccc1-c1ccc(C[C@H](NC(=O)[C@H](CC(=O)O)NC(=O)[C@H](CO)NC(=O)[C@@H](NC(=O)[C@](C)(Cc2ccccc2F)NC(=O)[C@@H](NC(=O)CNC(=O)[C@H](Cc2nn[nH]n2)NC(=O)C(C)(C)C(=O)NCCc2cnc[nH]2)[C@@H](C)O)[C@@H](C)O)C(=O)N[C@@H](CCCc2cc(C)cc(C)c2)C(=O)O)cc1 [P41] ({Malonyl(2,2-Me2,histaminyl)}-[Ala(1H-tetrazol-5-yl)]GT[αMePhe(2-F)]TSD[Bip(2'-Et,4'-O(CH2)4N3)][Nva(5-(3,5-Me2Ph))]-OH)",Human plasma stability assay T½,[1]; [5],>57.81 h
